Source: patent US7595313B2, “Nitric oxide donating diuretic compounds, compositions and methods of use” (NicOx, S.A., priority 2005, dated 2009)

Experiments:
Male Wistar rats = assay: Determination of the diuresis (urine volume over 6 hours after oral dosing); assay type: in vivo, rat; details: male Wistar rats, 6 hours, mean ± SEM, n=6 or 7
Procedure, shortened: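 Male Wistar rats (180-200 g) in metabolic cages, fasted 18 h, water withdrawn 90 min before dosing. Compounds in 0.5% Methocel given p.o. at 30 or 3 mg/kg; urine volume collected over 6 h. Mean ±SEM, n=6 or 7.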

Dahl salt sensitive rats = assay: Blood pressure determination under in vivo conditions in the Dahl salt sensitive rat; details: Dahl salt sensitive rats on high salt (8%) diet, gavage twice a day, 30 mg/kg HCT equivalent, telemetry, FIG. 1
Procedure: (§1) The effect of subchronic administration of Example 1c and hydrochlorothiazide (HCT) on blood pressure was assessed in telemeterized male Dahl salt sensitive rats (5-6 weeks old; 125-150 g) fed a high salt (8%) diet for 4 weeks. Compounds were administered twice a day for 7 eight days via gavage at 30 mg/kg HCT equivalent in a 0.5% methylcellulose vehicle. Blood pressure was continuously monitored by telemetry and reported as a change in mean arterial blood pressure (MABP) over a 24 h period.

[1] = tested on: Spontaneously Hypertensive rats (SHR); assay: Blood pressure determination under in vivo conditions in the Spontaneously Hypertensive rat; details: gavage twice a day, 30 mg/kg HCT equivalent, telemetry, FIG. 2
Procedure: as §1, with “17b” for “1c”, “Spontaneously Hypertensive” for “Dahl salt sensitive”, “(SHR; 9-10” for “(5-6”, “250-300 g).” for “125-150 g) fed a high salt (8%) diet for 4 weeks.”

SMILES | Urine collected in 6 hours (mL) (3 mg/kg) (Male Wistar rats; p.o. 3 mg/kg in 0.5% Methocel) | Urine collected in 6 hours (mL) (30 mg/kg) (Male Wistar rats; p.o. 30 mg/kg in 0.5% Methocel) | melting point | reductions in blood pressure (mean arterial blood pressure) during the treatment period (Dahl salt sensitive rats) | reductions in blood pressure (mean arterial blood pressure) during the treatment period, larger than with HCT [1]
NS(=O)(=O)c1cc2c(cc1Cl)NC(CCCCCO[N+](=O)[O-])NS2(=O)=O (stereo not drawn) [Example 1c, 2H-1,2,4-Benzothiadiazine-7-sulfonamide, 6-chloro-3,4-dihydro-3-[5-(nitrooxy)pentyl]-, 1,1-dioxide] | 6.6 ± 0.4 mL | 7.6 ± 0.5 mL | 158 to 161 °C | approximately 5 mm Hg | 
NS(=O)(=O)c1cc2c(cc1Cl)NC(CCCCO[N+](=O)[O-])NS2(=O)=O (stereo not drawn) [Example 17b, 2H-1,2,4-Benzothiadiazine-7-sulfonamide, 6-chloro-3,4-dihydro-3-[4-(nitrooxy)butyl]-, 1,1-dioxide] |  |  | 171 to 179 °C |  | 5-6 mm Hg
